A short description of data set [1]: In vitro elution of halofuginone from coated Vicryl sutures into PBS. Type of data set: physicochemical. The note with it: UV spectroscopy at 243 nm. On the procedure:
To determine halofuginone elution, an in vitro elution study was performed. The release of halofuginone from coated Vicryl sutures into phosphate buffered saline (PBS) was used to estimate kinetics of drug release in vivo. A 2.5 cm segment of HF—Br coated Vicryl was placed in 1.5 mL of PBS and incubated at 37° C. At 5, 15, 30, and 45 minutes and 1, 2, 4, 8, 24, 48, 72, and 96 hours the segment was transferred into a new 1.5 mL aliquot of PBS, and the amount of halofuginone from the previous aliquot was measured with UV spectrophotometry at 243 nm. Data from UV spectrophotometry indicated a rapid release of HF—Br into PBS in vitro (FIG. 3). It was approximated that 90% of the total drug mass was released in 30 minutes and that the drug was nearly eliminated in 2 hours.

Data set [2] deals with full thickness dermal incisions. As to the kind of experiment: Rat dorsal full thickness dermal incision wound healing model. The data set is classed as in vivo. From the text:
A total of nine animals underwent surgery: three controls and six treatment animals. On each control animal four full thickness dermal incisions were made on the dorsum. The two anterior incisions were closed with uncoated 3-0 Vicryl and N-butyl-2-cyanoacrylate glue; the posterior incisions were closed with Vicryl alone. In the experimental animals four full thickness wounds were made on the dorsum; the two anterior incisions were closed uncoated Vicryl and a mixture of HF—Br and N-butyl-2-cyanoacrylate (0.5 cc of HF—Br was added to 0.5 cc of N-butyl cyanoacrylate glue) was applied topically to the closed wound. The two posterior wounds were closed with HF—Br coated 3-0 Vicryl. Two treatment animals and one control animal were then euthanized at 2, 6, and 12 weeks and soft tissue specimens were taken for analysis.
Soft tissue samples were harvested, embedded in paraffin and sectioned (5 μm). Sections were stained with Hematoxylin and Eosin (H&E) and Masson's Trichrome. Inflammation scores were recorded according to the method of Storch (Surgical Infections. 2002; 3: 89-98). The area of scar tissue deposition was approximated and calculated with light microscopy and a Zeiss™ digital image capture software system.
To evaluate levels of newly formed collagen, tissue samples were digested in 1M NaCl in 0.05M Tris. Salt soluble collagen was then bound with a Sircol™ dye detection system and content was measured with UV spectrophotometry at […]. Percent tissue masses of salt soluble collagen were higher in all week 2 samples.
Tensile strength of dermal wound tissue specimens is assessed by measuring the breaking point with a tensometer. Tissue specimens are harvested and analyzed immediately after animals are sacrificed. The specimens are attached to the tensometer and pressure is applied until the wound breaks. This breaking pressure is recorded as tensile strength.
Skin samples were harvested so that the plane of the scar would be perpendicular to the direction of force applied. Samples were frozen, re-thawed, and secured by clamps in an tensometer (Instron™ Norwood, Mass.). Force was then applied until samples broke. Ultimate tensile load, percent elongation, and stiffness were then calculated for three control and three HF—Br treated samples at 2 and 12 weeks. Averages were reported. Average stiffness, ultimate tensile load, and percent elongation for all tissue samples increased from 2 to 12 weeks (FIG. 9).

Data set [3] deals with alpha 1 collagen gene expression. The experiment in a line: Real time qPCR of alpha 1 collagen gene expression in wound border skin. Type of data set: in vivo, rat. The note with it: wounds treated topically, suture only animals. The text has this: To determine alpha 1 collagen gene expression (in suture only animals), 2 mm punch biopsies of skin were taken at the border of wounds adjacent to suture material. Samples were flash frozen, pulverized, and RNA was extracted with Trizol reagent. Real time qPCR was employed to measure gene expression using rat 1-alpha-2 collagen ampliset. Relative quantities of alpha 1 collagen gene expression were normalized with expression levels of 18S and GAPDH RNA. These values were then divided by the relative quantity of alpha 1 collagen gene expression in normal skin.

Another data set deals with paranasal sinus wounds. The experiment in a line: Rat model of paranasal sinus surgery, HF-coated cellulose pack. The note with it: topical administration. Type of data set: in vivo. Here is the method: Topical application of a halofuginone/cellulose derivative packing was tested for the prevention of scar tissue formation in the paranasal sinuses of a rat. The paired, anatomically identical paranasal sinuses of the rat allow one side to serve as a control and the other to serve as experimental. The control sinus was packed with an uncoated cellulose derivative packing material (Merocel). The other (experimental) sinus cavity was packed with a halofuginone bromide coated cellulose derivative compound packing material. A second set of animals underwent paranasal sinus surgery and no packing material of any kind was placed. Both packing preparations provide adequate homeostasis and require removal, as in the human clinical scenario. The surgical wound was closed using absorbable subcuticular sutures. Sinus surgery was performed in the rat and packs placed for 5 days. Sinus specimens were harvested and analyzed.
In vivo elution studies were performed on packs removed 5 days post-operatively, placed in 10 mL PBS for 8 hrs, and 300 uL aliquot placed in spectrophotometer (blanked with a control pack removed post-operatively).

From patent publication US8883183B2, “Medical devices incorporating collagen inhibitors” (Wake Forest University Health Sciences, priority 2008, dated 2014) come the findings set out here.

For the compound `O=C(CC1NCCCC1O)Cn1cnc2cc(Br)c(Cl)cc2c1=O` (centres unmarked) [HF—Br, 7-bromo-6-chloro-3-[3-(3-hydroxy-2-piperidinyl)-2-oxopropyl]-4(3H)], the “release of HF—Br into PBS in vitro” value in data set [1] was “rapid drug release”. Further, the inflammation scores result in data set [2] (H&E, weeks 2, 6 and 12, vs controls) is listed as “consistently lower”. In addition, the “cross sectional areas of collagen deposition (scar)” value in data set [2] (Masson's trichrome, vs controls) was “consistently smaller”. Further, the “salt soluble collagen levels” value in data set [2] (Sircol assay, treated vs control, each time point) is “No significant difference”. Moreover, in data set [2] (Week 2), the “difference in collagen staining between treated and control” value stood at 2.7 fold; the wound area approximation is 322,107 μm^2. The “gross appearance of wounds” value in data set [2] (later time points, vs control) is reported as “No significant difference in appearance”. In addition, in data set [2] (rat, in vivo), the “stiffness, ultimate tensile load and percent elongation (tensile strength)” value is recorded as “No significant difference”. Besides, the “gross appearance of wounds (erythema and induration)” value in data set [2] (two weeks, vs control wounds) was “More erythema and induration were visible in control wounds”. The “1-alpha-2 collagen gene expression” value in data set [3] is “inhibited”. In the data set with paranasal sinus wounds, the post-operative scar formation entry is given as “reduced post-operative scar formation”.
